Results taken from article PMC8815882, “Screening the pandemic response box identified benzimidazole carbamates, Olorofim and ravuconazole as promising drug candidates for the treatment of eumycetoma” (PLoS Neglected Tropical Diseases, 2022).
Read-outs that look alike come from different tables or passages of the source.

Test system: M. mycetomatis genome strain MM55
Experiment: CLSI M38-A2 based in vitro susceptibility screening (XTT or resazurin), growth at fixed concentration
Type: cell-based, Madurella mycetomatis
Conditions: Madurella mycetomatis; for Percent fungal survival at 100 µM: read-out: Percentage survival at 100um, 100 uM A (second replicate column)
[1] = mean of replicates, MM55, read-out: Percentage survival at 25um, 25 uM mean
[2] = replicate A, MM55, read-out: Percentage survival at 25um, 25 um A
[3] = replicate B, MM55, read-out: Percentage survival at 25um, 25 uM B
[4] = replicate C, MM55, read-out: Percentage survival at 25um, 25 uM C
[5] = mean of replicates, MM55, read-out: Percentage survival at 100um, 100 uM mean
[6] = replicate 1, MM55, read-out: Percentage survival at 100um, 100 uM A
[7] = replicate 2, MM55, read-out: Percentage survival at 100um, 100 uM A
[8] = replicate 3, MM55, read-out: Percentage survival at 100um, 100 uM A
[9] = mean of three, M. mycetomatis MM55, read-out: Percentage survival at 25um, 25 uM mean
[10] = replicate A, M. mycetomatis MM55, read-out: Percentage survival at 25um, 25 um A
[11] = replicate B, M. mycetomatis MM55, read-out: Percentage survival at 25um, 25 uM B
[12] = replicate C, M. mycetomatis MM55, read-out: Percentage survival at 25um, 25 uM C
[13] = mean of three, M. mycetomatis MM55, read-out: Percentage survival at 100um, 100 uM mean
[14] = replicate 1, M. mycetomatis MM55, read-out: Percentage survival at 100um, 100 uM A (first replicate column)
[15] = replicate 2, M. mycetomatis MM55
[16] = replicate 3, M. mycetomatis MM55, read-out: Percentage survival at 100um, 100 uM A (third replicate column)
[17] = mean of three replicates, read-out: Percentage survival at 25um, 25 uM mean
[18] = replicate A, read-out: Percentage survival at 25um, 25 um A
[19] = replicate B, read-out: Percentage survival at 25um, 25 uM B
[20] = replicate C, read-out: Percentage survival at 25um, 25 uM C
[21] = first replicate column, read-out: Percentage survival at 100um, 100 uM A
[22] = mean of three replicates, read-out: Percentage survival at 100um, 100 uM mean
[23] = second replicate column, read-out: Percentage survival at 100um, 100 uM A
[24] = third replicate column, read-out: Percentage survival at 100um, 100 uM A
[25] = mean of replicates, read-out: Percentage survival at 25um, 25 uM mean
[26] = mean of replicates, read-out: Percentage survival at 100um, 100 uM mean
[27] = replicate 1, read-out: Percentage survival at 100um, 100 uM A
[28] = replicate 2, read-out: Percentage survival at 100um, 100 uM A
[29] = replicate 3, read-out: Percentage survival at 100um, 100 uM A

Cc1cc(CCOc2c(C)cc(-c3nnn(C)n3)cc2C)on1 [MMV1782349]
activity at 25 µM [1]: 75.6% | activity at 25 µM [2]: 84.4% | activity at 25 µM [3]: 90% | activity at 25 µM [4]: 52.4% | activity at 100 µM [5]: 52.1% | activity at 100 µM [6]: 44.9% | activity at 100 µM [7]: 65% | activity at 100 µM [8]: 46.2%

O=C(Nc1ccccc1)N(Cc1cc(Br)ccc1O)c1ccc(F)cc1 [MMV1581552]
activity at 25 µM [9]: 51.3% | activity at 25 µM [10]: 32.5% | activity at 25 µM [11]: 58.2% | activity at 25 µM [12]: 63.3% | activity at 100 µM [13]: 11.5% | activity at 100 µM [14]: 1.56% | Percent fungal survival at 100 µM [15]: 8.53% | activity at 100 µM [16]: 24.3%

C[C@@]1(O)[C@H](O)[C@@H](CO)O[C@H]1n1ccc2c(N)ncnc21 [MMV1593519]
activity at 25 µM [17]: 94.2% | activity at 25 µM [18]: 94.4% | activity at 25 µM [19]: 105% | activity at 25 µM [20]: 83.4% | activity at 100 µM [21]: 80.2% | activity at 100 µM [22]: 86.2% | activity at 100 µM [23]: 92.3% | activity at 100 µM [24]: 86.2%

CCCCCCCCC(CP(=O)(O)C(C)N)C(=O)O (stereo not shown) [MMV1582487]
activity at 25 µM [25]: 84.2% | activity at 25 µM [18]: 90.3% | activity at 25 µM [19]: 86.2% | activity at 25 µM [20]: 76.2% | activity at 100 µM [26]: 95.3% | activity at 100 µM [27]: 85.8% | activity at 100 µM [28]: 103% | activity at 100 µM [29]: 97.5%

Cc1nc(Nc2ccc(F)cc2)nc(N2CCc3ccccc3C2C)c1C (stereo not shown) [MMV030787]
activity at 25 µM (mean, read-out: Percentage survival at 25um, 25 uM mean): 63.9% | activity at 25 µM [18]: 74.6% | activity at 25 µM [19]: 56.2% | activity at 25 µM [20]: 61.1% | activity at 100 µM (mean, read-out: Percentage survival at 100um, 100 uM mean): 67.5% | activity at 100 µM (replicate (first column), read-out: Percentage survival at 100um, 100 uM A): 53.1% | activity at 100 µM (replicate (second column), read-out: Percentage survival at 100um, 100 uM A): 63.5% | activity at 100 µM (replicate (third column), read-out: Percentage survival at 100um, 100 uM A): 86%

O=C(NC1CCCc2c1[nH]c1ccc(Cl)cc21)c1ccccn1 (stereo not shown) [MMV690621]
activity at 25 µM [17]: 79% | activity at 25 µM [18]: 75.2% | activity at 25 µM [19]: 91.8% | activity at 25 µM [20]: 70.2% | activity at 100 µM [21]: -4.95% | activity at 100 µM [22]: -0.446% | activity at 100 µM [23]: -2.06% | activity at 100 µM [24]: 5.67%

CCc1nc(N)nc(N)c1C#CCc1ccccc1 [MMV1581549]
activity at 25 µM [17]: 92.3% | activity at 25 µM [18]: 59.8% | activity at 25 µM [19]: 78.6% | activity at 25 µM [20]: 138% | activity at 100 µM [22]: 2.68% | activity at 100 µM (replicate 1, read-out: Percentage survival at 100um, 100 uM A (first replicate column)): 1.33% | Percent fungal survival at 100 µM (replicate 2): 1.24% | activity at 100 µM (replicate 3, read-out: Percentage survival at 100um, 100 uM A (third replicate column)): 5.46%

CN(C)CC(=O)Nc1ccc2[nH]c(=O)c3ccccc3c2c1 [MMV1580480]
activity at 25 µM [1]: 94.3% | activity at 25 µM [2]: 106% | activity at 25 µM [3]: 107% | activity at 25 µM [4]: 70.4% | activity at 100 µM [5]: 76.4% | activity at 100 µM [6]: 87.1% | activity at 100 µM [7]: 63.4% | activity at 100 µM [8]: 78.7%

Cc1c[nH]c(=O)nc1NCc1ccccc1 [MMV1582489]
activity at 25 µM [25]: 93.3% | activity at 25 µM [18]: 97.9% | activity at 25 µM [19]: 91.7% | activity at 25 µM [20]: 90.3% | activity at 100 µM [26]: 88.7% | activity at 100 µM [27]: 101% | activity at 100 µM [28]: 80.8% | activity at 100 µM [29]: 84.5%

COc1ccc(C(C)(C)C)cc1NC(=O)C(=O)c1ccc(OCCN2CCOCC2)c2ccccc12 [MMV1782209]
activity at 25 µM [1]: 96.3% | activity at 25 µM [2]: 102% | activity at 25 µM [3]: 99.5% | activity at 25 µM [4]: 87.2% | activity at 100 µM [5]: 91.3% | activity at 100 µM [6]: 102% | activity at 100 µM [7]: 86% | activity at 100 µM [8]: 85.7%

NC(=O)c1ccccc1NC(=O)c1ccc(C(=O)Nc2ccccc2C(N)=O)cc1 [MMV508427]
activity at 25 µM [9]: 86.7% | activity at 25 µM [10]: 92% | activity at 25 µM [11]: 87.7% | activity at 25 µM [12]: 80.3% | activity at 100 µM [13]: 95.7% | activity at 100 µM [14]: 98.6% | Percent fungal survival at 100 µM [15]: 92.7% | activity at 100 µM [16]: 95.8%
